Data: PubChem BioAssay (NCI)
Where “and” joins values, the source holds several entries; their conditions need not be identical. Identical values can stand only once.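 Exposure lasted 48 hours, with cells grown in 96-well plates and compounds tested at five concentrations. At the GI50, growth is halved. TGI denotes the concentration required for complete inhibition of growth.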

Assays:
Assay in all cases: NCI-60 cell line screen, 48 h
CCRF-CEM leukemia = system: CCRF-CEM leukemia
DU-145 prostate = system: DU-145 prostate
HCT-15 colon = system: HCT-15 colon
HL-60(TB) leukemia = system: HL-60(TB) leukemia
MOLT-4 leukemia = system: MOLT-4 leukemia
NCI/ADR-RES ovarian = system: NCI/ADR-RES ovarian
SF-268 CNS = system: SF-268 CNS
SK-OV-3 ovarian = system: SK-OV-3 ovarian
SNB-75 CNS = system: SNB-75 CNS
SW-620 colon = system: SW-620 colon

SMILES: Cc1cc(Nc2nc(-c3cn(-c4ccc(Cl)cc4)nn3)nc3ccccc23)n[nH]1
- GI50 (CCRF-CEM leukemia): 19500 nM
- TGI (CCRF-CEM leukemia): > 50000 nM
- GI50 (DU-145 prostate): 10700 nM
- TGI (DU-145 prostate): > 50000 nM
- GI50 (HCT-15 colon): 2170 nM
- TGI (HCT-15 colon): > 50000 nM
- GI50 (HL-60(TB) leukemia): 18300 nM
- TGI (HL-60(TB) leukemia): > 50000 nM
- GI50 (MOLT-4 leukemia): 22000 nM
- TGI (MOLT-4 leukemia): > 50000 nM
- GI50 (NCI/ADR-RES ovarian): 1580 nM
- TGI (NCI/ADR-RES ovarian): > 50000 nM
- GI50 (SF-268 CNS): 14600 nM
- TGI (SF-268 CNS): > 50000 nM
- GI50 (SK-OV-3 ovarian): 6820 nM
- TGI (SK-OV-3 ovarian): 48500 nM
- GI50 (SNB-75 CNS): 23000 nM
- TGI (SNB-75 CNS): > 50000 nM
- GI50 (SW-620 colon): 12500 nM
- TGI (SW-620 colon): > 50000 nM

SMILES: Cc1cc(N/N=C/c2ccccn2)nc2ccccc12
- GI50 (CCRF-CEM leukemia): 250 nM
- TGI (CCRF-CEM leukemia): 1770 nM
- GI50 (DU-145 prostate): 460 nM
- TGI (DU-145 prostate): 14300 nM
- GI50 (HCT-15 colon): 336 nM
- TGI (HCT-15 colon): 16300 nM
- GI50 (HL-60(TB) leukemia): 295 nM
- TGI (HL-60(TB) leukemia): 804 nM
- GI50 (MOLT-4 leukemia): 352 nM
- TGI (MOLT-4 leukemia): 4980 nM
- GI50 (NCI/ADR-RES ovarian): 393 nM
- TGI (NCI/ADR-RES ovarian): 21700 nM
- GI50 (SF-268 CNS): 440 nM
- TGI (SF-268 CNS): 15300 nM
- GI50 (SK-OV-3 ovarian): 668 nM
- TGI (SK-OV-3 ovarian): 16000 nM
- GI50 (SNB-75 CNS): 461 nM
- TGI (SNB-75 CNS): 15200 nM
- GI50 (SW-620 colon): 588 nM
- TGI (SW-620 colon): 19600 nM

SMILES: COc1cc2c(Nc3cc(Cl)c(OC)c(Cl)c3)c(C#N)cnc2cc1OCCCN1CCN(C)CC1
- GI50 (CCRF-CEM leukemia): 2040 nM
- TGI (CCRF-CEM leukemia): 10800 nM
- GI50 (DU-145 prostate): 1280 nM
- TGI (DU-145 prostate): 13000 nM
- GI50 (HCT-15 colon): 1320 nM
- TGI (HCT-15 colon): 12100 nM
- GI50 (HL-60(TB) leukemia): 1780 nM
- TGI (HL-60(TB) leukemia): 4030 nM
- GI50 (MOLT-4 leukemia): 1670 nM
- TGI (MOLT-4 leukemia): 7920 nM
- GI50 (NCI/ADR-RES ovarian): 2460 nM
- TGI (NCI/ADR-RES ovarian): 9550 nM
- GI50 (SF-268 CNS): 1900 nM
- TGI (SF-268 CNS): 6920 nM
- GI50 (SK-OV-3 ovarian): 378 nM
- TGI (SK-OV-3 ovarian): 16600 nM
- GI50 (SNB-75 CNS): 6570 nM
- TGI (SNB-75 CNS): 25200 nM
- GI50 (SW-620 colon): 2180 nM
- TGI (SW-620 colon): 6030 nM

SMILES: Cc1ccc(OCCOCCOCCOCCOc2ccc(C)n(O)c2=S)c(=S)n1O
- GI50 (CCRF-CEM leukemia): < 10 nM
- TGI (CCRF-CEM leukemia): > 100000 nM
- GI50 (DU-145 prostate): 184 nM
- TGI (DU-145 prostate): > 100000 nM
- GI50 (HCT-15 colon): < 10.4 nM
- TGI (HCT-15 colon): > 100000 nM
- GI50 (HL-60(TB) leukemia): 110 nM
- TGI (HL-60(TB) leukemia): 5950 nM
- GI50 (MOLT-4 leukemia): < 10 nM
- TGI (MOLT-4 leukemia): > 100000 nM
- GI50 (NCI/ADR-RES ovarian): < 15.8 nM
- TGI (NCI/ADR-RES ovarian): > 100000 nM
- GI50 (SF-268 CNS): 48.2 nM
- TGI (SF-268 CNS): > 100000 nM
- GI50 (SK-OV-3 ovarian): 75.3 nM
- TGI (SK-OV-3 ovarian): > 100000 nM
- GI50 (SNB-75 CNS): 3490 nM
- TGI (SNB-75 CNS): > 100000 nM
- GI50 (SW-620 colon): < 12.7 nM
- TGI (SW-620 colon): > 100000 nM

SMILES: C=CC(=O)N1CN(C(=O)C=C)CN(C(=O)C=C)C1
- GI50 (CCRF-CEM leukemia): 2820 nM
- TGI (CCRF-CEM leukemia): 9780 nM
- GI50 (DU-145 prostate): 10700 nM
- TGI (DU-145 prostate): 29000 nM
- GI50 (HCT-15 colon): 2010 nM
- TGI (HCT-15 colon): 4680 nM
- GI50 (HL-60(TB) leukemia): 3370 nM
- TGI (HL-60(TB) leukemia): 10300 nM
- GI50 (MOLT-4 leukemia): 2710 nM
- TGI (MOLT-4 leukemia): 8050 nM
- GI50 (NCI/ADR-RES ovarian): 6810 nM
- TGI (NCI/ADR-RES ovarian): > 100000 nM
- GI50 (SF-268 CNS): 11000 nM
- TGI (SF-268 CNS): 50600 nM
- GI50 (SK-OV-3 ovarian): 26800 nM
- TGI (SK-OV-3 ovarian): > 100000 nM
- GI50 (SNB-75 CNS): 8900 nM
- TGI (SNB-75 CNS): > 100000 nM
- GI50 (SW-620 colon): 2160 nM
- TGI (SW-620 colon): 5160 nM

SMILES: COc1ccc(-c2ccc3c(N4CCOC[C@@H]4C)nc(N4CCOC[C@@H]4C)nc3n2)cc1CO
- GI50 (CCRF-CEM leukemia): 10.2 nM and 59 nM
- TGI (CCRF-CEM leukemia): > 100000 nM
- GI50 (DU-145 prostate): 5.84 nM and 41.6 nM
- TGI (DU-145 prostate): > 100000 nM
- GI50 (HCT-15 colon): 5.26 nM and 30.1 nM
- TGI (HCT-15 colon): > 100000 nM
- TGI (HL-60(TB) leukemia): > 3760 nM and 20700 nM
- GI50 (MOLT-4 leukemia): 5.84 nM and 48.8 nM
- TGI (MOLT-4 leukemia): > 6640 nM and 37100 nM
- GI50 (NCI/ADR-RES ovarian): 13 nM and 58.4 nM
- GI50 (SF-268 CNS): 5.37 nM and 35.9 nM
- TGI (SF-268 CNS): > 3310 nM and 51100 nM
- GI50 (SK-OV-3 ovarian): 3.24 nM and 13.8 nM
- TGI (SK-OV-3 ovarian): 47.9 nM and 116 nM
- GI50 (SNB-75 CNS): 3.9 nM and < 10 nM
- TGI (SNB-75 CNS): 23.7 nM and 35.9 nM
- GI50 (SW-620 colon): 7.8 nM and 53.7 nM
- TGI (SW-620 colon): > 100000 nM

SMILES: CC(C)(C)[Si](C)(C)OC1[C@@H](CNC(=O)NC(=O)CCl)O[C@@H](n2cnc3c(N)ncnc32)[C@H]1O[Si](C)(C)C(C)(C)C (stereo partly drawn)
- GI50 (CCRF-CEM leukemia): 121 nM
- TGI (CCRF-CEM leukemia): 326 nM
- GI50 (DU-145 prostate): 2050 nM
- TGI (DU-145 prostate): 5260 nM
- GI50 (HCT-15 colon): 832 nM
- TGI (HCT-15 colon): 1670 nM
- GI50 (HL-60(TB) leukemia): 893 nM
- TGI (HL-60(TB) leukemia): 1870 nM
- GI50 (MOLT-4 leukemia): 530 nM
- TGI (MOLT-4 leukemia): 1730 nM
- GI50 (NCI/ADR-RES ovarian): 1180 nM
- TGI (NCI/ADR-RES ovarian): 3110 nM
- GI50 (SF-268 CNS): 1060 nM
- TGI (SF-268 CNS): 2090 nM
- GI50 (SK-OV-3 ovarian): 1050 nM
- TGI (SK-OV-3 ovarian): 2010 nM
- GI50 (SNB-75 CNS): 867 nM
- TGI (SNB-75 CNS): 2470 nM
- GI50 (SW-620 colon): 891 nM
- TGI (SW-620 colon): 1770 nM

SMILES: COc1ccc(-c2nn(-c3cccc(Cl)c3)cc2-c2cc(-c3ccccc3)[nH]c(=O)c2C#N)cc1
- GI50 (CCRF-CEM leukemia): 8380 nM
- TGI (CCRF-CEM leukemia): 19300 nM
- GI50 (DU-145 prostate): 10300 nM
- TGI (DU-145 prostate): > 50000 nM
- GI50 (HCT-15 colon): 27000 nM
- TGI (HCT-15 colon): > 50000 nM
- GI50 (HL-60(TB) leukemia): 21900 nM
- TGI (HL-60(TB) leukemia): > 50000 nM
- GI50 (MOLT-4 leukemia): 42300 nM
- TGI (MOLT-4 leukemia): > 50000 nM
- GI50 (NCI/ADR-RES ovarian): 2140 nM
- TGI (NCI/ADR-RES ovarian): 36000 nM
- GI50 (SF-268 CNS): 2590 nM
- TGI (SF-268 CNS): > 50000 nM
- GI50 (SK-OV-3 ovarian): 922 nM
- TGI (SK-OV-3 ovarian): 2290 nM
- GI50 (SNB-75 CNS): 1170 nM
- TGI (SNB-75 CNS): 3610 nM
- GI50 (SW-620 colon): 9230 nM
- TGI (SW-620 colon): > 50000 nM
